Common to all, as to format: cell-based
Test [1] concerns the target T1, Brd4 (L) (Homo sapiens, UniProt O60885).
T1 construct: endogenous in cells; host or cells: HEK293, HeLa
In words: Time-dependent BET degradation, immunoblot, HeLa cells. The arrangement: dose or concentration left out as unconfirmed. To be noted: timecourse 0-8 h. On the procedure:
(§1) Cell culture. HeLa (CCL-2) and HEK293 (CRL-1573) cells were purchased from ATCC and cultured in DMEM medium (Gibco) supplemented with 10% FBS, 100 μg/mL penicillin/streptomycin and L-glutamine. Cells were grown at 37° C. and 5% CO2, and were kept no longer than 30 passages. All cell lines were routinely tested for mycoplasma contamination using MycoAlert kit from Lonza.
(§2) Immunoblotting. proteins were separated by SDS-PAGE on NuPage 4-12% Bis-Tris gels, followed by transfer to Amersham Protran 0.45 NC nitrocellulose membrane (GE Healthcare) using wet transfer. Membranes were blocked using 5% w/v milk in Tris-buffered saline (TBS) with 0.1% Tween-20. Blots were probed (overnight at 4° C.) using anti-Brd2 (Abcam ab139690, 1:2,000 dilution), anti-Brd3 (Abcam ab50818, 1:500 dilution), and anti-Brd4 (Abcam ab128874, 1:1,000 dilution) primary antibodies, as appropriate. The next day, blots were washed with TBST and incubated (1 hr at RT) with anti-Tubulin hFAB-rhodamine (BioRad, 12004166) primary antibody, and either anti-rabbit IRDye 800CW (Licor 1:10,000 dilution) or anti-mouse IRDye 800CW (Licor 1:10,000 dilution) secondary antibody. Blots were developed using a Bio-Rad ChemiDoc MP Imaging System, and band quantification was performed using Image Studio software (LiCor). Band intensities were normalized to the tubulin loading control and reported as % of the average 0.1% DMSO vehicle intensity. Degradation data was plotted and analysed using Prism (Graphpad, version 8).
(§3) HeLa (3×10^5) and HEK293 (0.5×10^6) cells were seeded in standard 6-well plates (2 mL medium) overnight before treatment with compounds at 1 μM concentration, with a final DMSO concentration of 0.1% v/v. After incubation for the desired time (0-8 h), cells were washed with DPBS (Gibco) and lysed using 85 μL RIPA buffer (Sigma-Aldrich) supplemented with cOmplete Mini EDTA-free protease inhibitor cocktail (Roche) and benzonase. Lysates were clarified by centrifugation (20,000 g, 10 min, 4° C.) and the total protein content of the supernatant was quantified using a Bradford colorimetric assay. Samples were prepared using equal amounts of total protein and LDS sample buffer (Invitrogen).
(§4) Representative blots in FIG. 4 show depletion of Brd2, Brd3 and Brd4 protein levels following 1 μM treatment at various time points with representative compounds. Band intensities were normalized to the β-tubulin loading control and reported as % of the average 0.1% DMSO vehicle intensity, with each point representing mean±SEM of two independent experiments (n=2). Degradation data was plotted and analysed using Prism (Graphpad, version 8).
(§5) T½ (h) is the time required to deplete 50% of the protein relative to DMSO

Test [2] has as its target T2, Brd4 (S) (Homo sapiens, UniProt O60885).
T2 construct: endogenous in cells; host or cells: HEK293, HeLa
The test is described as above. The following applies: timecourse 0-8 h. On the set-up: dose or concentration left out as unconfirmed. On the procedure: as §1, §2, §3, §4, §5

Test [3] concerns the target T3, Brd3 (Homo sapiens, UniProt Q15059). In words: Time-dependent BET degradation, immunoblot, HEK293 cells. The arrangement: endogenous in cells; host or cells: HEK293. To be noted: HEK293, Brd3, 1 μM, timecourse 0-8 h. On the procedure: as §1, §2, §3, §4, §5
On the technique in general: A western blot detects proteins with antibodies after separation by electrophoresis.

Test [4] has as its target T4, Brd2 (Homo sapiens, UniProt P25440). Described as above. On the set-up: endogenous in cells; host or cells: HEK293. To be noted: HEK293, Brd2, 1 μM, timecourse 0-8 h. On the procedure: as §1, §2, §3, §4, §5
Test [5] has as its target T1, Brd4 (L). Nature of the test: Concentration-dependent BET degradation, immunoblot, HEK293 cells. The following applies: 6 h treatment, 1 nM-10 μM; for Dmax: read-out: Dmax (%) maximum degradation observed. On the procedure:
as §1, §2
as §3, with “(5×10^5)” for “(3×10^5)”, “(1×10^6)” for “(0.5×10^6)”, “the desired concentration (1 nM-10 μM),” for “1 μM concentration,”, “6 h treatment time,” for “incubation for the desired time (0-8 h),”, “(20,000g,” for “(20,000 g,”, “(Invitrogen.” for “(Invitrogen).”
(§6) Representative blots in FIG. 3 show depletion of Brd2, Brd3 and Brd4 protein levels following treatment with increasing concentrations of representative compounds. Band intensities were normalized to the β-tubulin loading control and reported as % of the average 0.1% DMSO vehicle intensity, with each point representing mean±SEM of two independent experiments (n=2). Degradation data was plotted and analysed using Prism (Graphpad, version 8)

The target in test [6] is T2, Brd4 (S). Described as above. The following applies: 6 h treatment, 1 nM-10 μM; for Dmax: read-out: Dmax (%) maximum degradation observed. On the procedure: as §1, §2
as §3, with “(5×10^5)” for “(3×10^5)”, “(1×10^6)” for “(0.5×10^6)”, “the desired concentration (1 nM-10 μM),” for “1 μM concentration,”, “6 h treatment time,” for “incubation for the desired time (0-8 h),”, “(20,000g,” for “(20,000 g,”, “(Invitrogen.” for “(Invitrogen).”
as §6

The target in test [7] is T1, Brd4 (L). Nature of the test: Concentration-dependent BET degradation, immunoblot, HeLa cells. To be noted: 6 h treatment, 1 nM-10 μM; for Dmax: read-out: Dmax (%) maximum degradation observed. On the procedure:
as §1, §2
as §3, with “(5×10^5)” for “(3×10^5)”, “(1×10^6)” for “(0.5×10^6)”, “the desired concentration (1 nM-10 μM),” for “1 μM concentration,”, “6 h treatment time,” for “incubation for the desired time (0-8 h),”, “(20,000g,” for “(20,000 g,”, “(Invitrogen.” for “(Invitrogen).”
as §6

Test [8] has as its target T2, Brd4 (S). The description is as above. The following applies: 6 h treatment, 1 nM-10 μM; for Dmax: read-out: Dmax (%) maximum degradation observed. On the procedure:
as §1, §2
as §3, with “(5×10^5)” for “(3×10^5)”, “(1×10^6)” for “(0.5×10^6)”, “the desired concentration (1 nM-10 μM),” for “1 μM concentration,”, “6 h treatment time,” for “incubation for the desired time (0-8 h),”, “(20,000g,” for “(20,000 g,”, “(Invitrogen.” for “(Invitrogen).”
as §6

The target in test [9] is T3, Brd3. In words: Concentration-dependent BET degradation, immunoblot, HEK293 cells. On the set-up: endogenous in cells; host or cells: HEK293. The following applies: HEK293, Brd3, 6 h treatment, 1 nM-10 μM; for Dmax: read-out: Dmax (%) maximum degradation observed. On the procedure:
as §1, §2
as §3, with “(5×10^5)” for “(3×10^5)”, “(1×10^6)” for “(0.5×10^6)”, “the desired concentration (1 nM-10 μM),” for “1 μM concentration,”, “6 h treatment time,” for “incubation for the desired time (0-8 h),”, “(20,000g,” for “(20,000 g,”, “(Invitrogen.” for “(Invitrogen).”
as §6

In test [10] the target is T4, Brd2. Described as above. On the set-up: endogenous in cells; host or cells: HEK293. The following applies: HEK293, Brd2, 6 h treatment, 1 nM-10 μM; for Dmax: read-out: Dmax (%) maximum degradation observed. On the procedure: as §1, §2
as §3, with “(5×10^5)” for “(3×10^5)”, “(1×10^6)” for “(0.5×10^6)”, “the desired concentration (1 nM-10 μM),” for “1 μM concentration,”, “6 h treatment time,” for “incubation for the desired time (0-8 h),”, “(20,000g,” for “(20,000 g,”, “(Invitrogen.” for “(Invitrogen).”
as §6

In test [11] the target is T1, Brd4 (L). In words: Time-dependent BET degradation, immunoblot, HEK293 cells. The arrangement: dose or concentration left out as unconfirmed. To be noted: timecourse 0-8 h. On the procedure: as §1, §2, §3, §4, §5
The target of test [12] is T2, Brd4 (S). The description is as above. The arrangement: dose or concentration left out as unconfirmed. To be noted: timecourse 0-8 h. On the procedure: as §1, §2, §3, §4, §5
The target of test [13] is T3, Brd3. Nature of the test: Time-dependent BET degradation, immunoblot, HeLa cells. To be noted: Brd3, 1 μM, timecourse 0-8 h. On the set-up: endogenous in cells; host or cells: HeLa. On the procedure: as §1, §2, §3, §4, §5
The target in test [14] is T4, Brd2. Described as above. The following applies: Brd2, 1 μM, timecourse 0-8 h. The arrangement: endogenous in cells; host or cells: HeLa. On the procedure: as §1, §2, §3, §4, §5
For test [15], the target named is T3, Brd3. Nature of the test: Concentration-dependent BET degradation, immunoblot, HeLa cells. To be noted: Brd3, 6 h treatment, 1 nM-10 μM; for Dmax: read-out: Dmax (%) maximum degradation observed. On the set-up: endogenous in cells; host or cells: HeLa. On the procedure:
as §1, §2
as §3, with “(5×10^5)” for “(3×10^5)”, “(1×10^6)” for “(0.5×10^6)”, “the desired concentration (1 nM-10 μM),” for “1 μM concentration,”, “6 h treatment time,” for “incubation for the desired time (0-8 h),”, “(20,000g,” for “(20,000 g,”, “(Invitrogen.” for “(Invitrogen).”
as §6

Test [16] has as its target T4, Brd2. The description is as above. To be noted: Brd2, 6 h treatment, 1 nM-10 μM; for Dmax: read-out: Dmax (%) maximum degradation observed. On the set-up: endogenous in cells; host or cells: HeLa. On the procedure:
as §1, §2
as §3, with “(5×10^5)” for “(3×10^5)”, “(1×10^6)” for “(0.5×10^6)”, “the desired concentration (1 nM-10 μM),” for “1 μM concentration,”, “6 h treatment time,” for “incubation for the desired time (0-8 h),”, “(20,000g,” for “(20,000 g,”, “(Invitrogen.” for “(Invitrogen).”
as §6

Some results are limits rather than exact numbers.

One may read the Dmax as the greatest extent of degradation seen. As usually defined, the DC50 is the midpoint of the concentration-degradation curve.

T3 sequence (Q15059 whole entry): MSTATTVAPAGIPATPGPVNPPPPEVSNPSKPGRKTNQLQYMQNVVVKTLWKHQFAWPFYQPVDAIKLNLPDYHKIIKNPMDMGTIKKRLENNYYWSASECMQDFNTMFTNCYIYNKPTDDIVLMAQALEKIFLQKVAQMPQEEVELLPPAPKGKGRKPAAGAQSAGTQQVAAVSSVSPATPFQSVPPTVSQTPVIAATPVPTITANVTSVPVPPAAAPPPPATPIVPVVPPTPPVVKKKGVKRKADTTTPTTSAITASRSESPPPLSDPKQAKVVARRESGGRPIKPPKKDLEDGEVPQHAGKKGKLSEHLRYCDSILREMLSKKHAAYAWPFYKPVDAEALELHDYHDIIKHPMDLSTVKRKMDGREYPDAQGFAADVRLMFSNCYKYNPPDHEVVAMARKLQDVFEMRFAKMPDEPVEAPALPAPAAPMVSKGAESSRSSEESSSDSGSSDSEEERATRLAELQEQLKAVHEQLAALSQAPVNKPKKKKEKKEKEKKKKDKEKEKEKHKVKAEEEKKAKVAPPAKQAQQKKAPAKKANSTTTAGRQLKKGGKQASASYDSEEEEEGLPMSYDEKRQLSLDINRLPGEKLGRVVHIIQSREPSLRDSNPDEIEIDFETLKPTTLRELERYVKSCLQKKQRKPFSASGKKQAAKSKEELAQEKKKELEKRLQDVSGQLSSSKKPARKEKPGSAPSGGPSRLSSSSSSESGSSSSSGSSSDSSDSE
T4 sequence (P25440 whole entry): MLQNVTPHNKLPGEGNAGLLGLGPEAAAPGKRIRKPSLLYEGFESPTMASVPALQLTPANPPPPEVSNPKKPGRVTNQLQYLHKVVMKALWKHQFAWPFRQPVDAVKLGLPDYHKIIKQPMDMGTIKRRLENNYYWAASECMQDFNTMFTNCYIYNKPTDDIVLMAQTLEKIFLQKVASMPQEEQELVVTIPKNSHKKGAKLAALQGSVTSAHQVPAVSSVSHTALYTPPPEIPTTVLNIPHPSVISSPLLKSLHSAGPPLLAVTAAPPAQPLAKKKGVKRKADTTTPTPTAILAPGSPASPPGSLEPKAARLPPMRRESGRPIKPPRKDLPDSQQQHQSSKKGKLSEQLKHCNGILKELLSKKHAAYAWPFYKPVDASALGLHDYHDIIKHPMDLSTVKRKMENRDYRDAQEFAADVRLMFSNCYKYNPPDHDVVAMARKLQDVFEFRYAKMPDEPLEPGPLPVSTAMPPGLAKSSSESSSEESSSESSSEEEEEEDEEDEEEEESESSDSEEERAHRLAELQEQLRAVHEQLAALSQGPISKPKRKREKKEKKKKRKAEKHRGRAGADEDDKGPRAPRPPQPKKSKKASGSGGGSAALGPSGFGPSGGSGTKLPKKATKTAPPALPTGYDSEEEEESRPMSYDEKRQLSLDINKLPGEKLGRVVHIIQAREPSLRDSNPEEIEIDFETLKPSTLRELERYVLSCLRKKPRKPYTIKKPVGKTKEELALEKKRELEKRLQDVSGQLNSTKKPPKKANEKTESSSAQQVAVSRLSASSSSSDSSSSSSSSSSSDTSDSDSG

As to `CCCC(NC(=O)/C(C#N)=C/c1nc(Cl)ccc1Cl)c1ccc(OCCOCCOCCOCCOCCOCCOCCNC(=O)c2ccc(-c3ccc4c(c3)[C@H](Nc3ccc(Cl)cc3)C[C@H](C)N4C(C)=O)cc2)cc1` (stereo partly drawn) [Example 05IB10], the greatest degradation seen (Dmax) is 100% at Brd4 (L) [1]; 100% at Brd4 (S) [2]; no less than 71% on Brd4 (L) [5]; no less than 71% at Brd4 (S) [6]; 51 to 70% at Brd4 (L) [7]; no less than 71% at Brd4 (S) [8]. The Dmax is no less than 71% at Brd3 [9]; 51 to 70% on Brd2 [10]; 100% at Brd4 (L) [11]; 99% at Brd4 (S) [12]; no less than 71% at Brd3 [15]; no less than 71% on Brd2 [16]. For the same compound, the Dmax at 1 µM turned out to be 90% at Brd3 [3], 82% on Brd2 [4], 100% at Brd3 [13] and 97% at Brd2 [14]. In addition, the DC50 on Brd4 (L) [5] is no more than 50 nM; at Brd4 (S) [6] it was no more than 50 nM; at Brd4 (L) [7], no more than 50 nM; at Brd4 (S) [8], 51 to 500 nM; at Brd3 [9], 51 to 500 nM; at Brd2 [10] it was 51 to 500 nM. The values for the DC50 on Brd3 [15] and at Brd2 [16] were 51 to 500 nM and no more than 50 nM, respectively.
Take `CCCC(NC(=O)/C(C#N)=C/c1cccc(Br)n1)c1ccc(OCC=NOCC(=O)NCCOCCNC(=O)c2ccc3c(c2)[C@H](Nc2ccc(Cl)cc2)C[C@H](C)N3C(C)=O)cc1` (stereo partly drawn) [Example 05IB1]: the Dmax at Brd4 (L) [1] was 100%; on Brd4 (S) [2], 100%; on Brd4 (L) [5], no less than 71%; at Brd4 (S) [6], no less than 71%; on Brd4 (L) [7], 26 to 50%; at Brd4 (S) [8], no less than 71%. Moreover, the Dmax at Brd3 [9] was no less than 71%; at Brd2 [10], 51 to 70%; on Brd4 (L) [11], 100%; on Brd4 (S) [12], 100%; on Brd3 [15], 26 to 50%; at Brd2 [16], no more than 25%. Further, the Dmax at 1 µM on Brd3 [3], at Brd2 [4], on Brd3 [13] and on Brd2 [14] was 100% throughout. Further, the DC50 is no more than 50 nM on Brd4 (L) [5]; no more than 50 nM at Brd4 (S) [6]; 51 to 500 nM at Brd4 (L) [7]; no more than 50 nM at Brd4 (S) [8]; no more than 50 nM at Brd3 [9]; no more than 50 nM at Brd2 [10]. Further, the DC50 at Brd3 [15] is no more than 50 nM; at Brd2 [16], 51 to 500 nM.
